Measurements: the NIST ThermoML archive (doi:10.1016/j.jct.2012.06.033)
± gives the expanded uncertainty stated by the source.

Legend:
[1] = Liquid, Ebulliometric method (Recirculating still)
[2] = refractive index (Na D-line) (dimensionless); settings: 298.15 K; 101.33 kPa; Liquid; Standard Abbe refractometry

| SMILES | vapor or sublimation pressure ([1]; 343.15 K) [kPa] | vapor or sublimation pressure ([1]; 353.15 K) [kPa] | vapor or sublimation pressure ([1]; 363.15 K) [kPa] | refractive index [2] |
| --- | --- | --- | --- | --- |
| C[N+](=O)[O-] [nitromethane] | 34.93 ± 0.2 | 50.14 ± 0.25 | 70.81 ± 0.33 | 1.3793 ± 0.0007 |
| CC[N+](=O)[O-] [nitroethane] | 22.46 ± 0.13 | 32.84 ± 0.17 | 47.13 ± 0.22 | 1.3895 ± 0.0007 |
| ClCCCCCl [1,4-dichlorobutane] | 5.25 ± 0.03 | 8.2 ± 0.04 | 12.52 ± 0.05 | 1.4522 ± 0.0004 |
